Test results as given in PubChem BioAssay (NCI).
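The compound was tested at five concentrations on cells cultured in 96-well plates, with a 48-hour exposure period. GI50 = concentration required for 50% inhibition of growth. TGI marks complete inhibition of growth.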

Experiments:
Assay in all cases: NCI anticancer screen, dose series, 48 h
SF-539 CNS = system: SF-539 CNS
ACHN renal = system: ACHN renal
SW-620 colon = system: SW-620 colon
SR leukemia = system: SR leukemia
SK-MEL-2 melanoma = system: SK-MEL-2 melanoma
NCI-H23 lung = system: NCI-H23 lung
SK-OV-3 ovarian = system: SK-OV-3 ovarian
HCC-2998 colon = system: HCC-2998 colon
PC-3 prostate = system: PC-3 prostate
BT-549 breast = system: BT-549 breast

Row | Compound | TGI (SF-539 CNS) [µM] | TGI (ACHN renal) [µM] | TGI (SW-620 colon) [µM] | TGI (SR leukemia) [µM] | TGI (SK-MEL-2 melanoma) [µM] | TGI (NCI-H23 lung) [µM] | TGI (SK-OV-3 ovarian) [µM] | TGI (HCC-2998 colon) [µM] | TGI (PC-3 prostate) [µM] | GI50 (SF-539 CNS) [µM] | GI50 (BT-549 breast) [µM] | TGI (BT-549 breast) [µM] | GI50 (ACHN renal) [µM] | GI50 (SW-620 colon) [µM] | GI50 (SK-MEL-2 melanoma) [µM] | GI50 (PC-3 prostate) [µM] | GI50 (NCI-H23 lung) [µM] | GI50 (SK-OV-3 ovarian) [µM] | GI50 (HCC-2998 colon) [µM] | GI50 (SR leukemia) [µM]
1 | CN(C)c1ccc2c(NCCCCCCNc3ccnc4cc(N(C)C)ccc34)ccnc2c1 | 45.2 | 33.6 | > 100 | > 100 | 82.5 | 27.2 | > 100 | 70.7 | – | – | – | – | – | – | – | – | – | – | – | –
2 | CC(=O)OC1c2ccccc2CC2(OC(C)=O)c3ccccc3C12 (stereo not drawn) | > 100 | > 100 | > 100 | > 100 | > 100 | > 100 | > 100 | > 100 | > 100 | – | – | – | – | – | – | – | – | – | – | –
3 | CSc1nnc(CCSc2ccnc3c(C(F)(F)F)cccc23)o1 | > 100 | > 100 | > 100 | – | > 100 | > 100 | > 100 | > 100 | > 100 | 60.6 | 31.4 | > 100 | > 100 | > 100 | > 100 | 88.4 | > 100 | > 100 | 64.8 | –
4 | O=C(NCCCCCCNC(=O)c1cccc2ccccc12)c1cccc2ccccc12 | 35.4 | > 100 | > 100 | > 100 | 34.5 | > 100 | 56.9 | – | – | – | – | – | – | – | – | – | – | – | – | –
5 | C=C1C(=O)OC2CC3(C)C=CC(=O)C(=C)C3CC12 (stereo not drawn) | 3.97 | 3.35 | 2.36 | 12.4 | 3.13 | 3.48 | 42.1 | 6.55 | – | – | – | – | – | – | – | – | – | – | – | –
6 | O=C(CC1Sc2ccccc2NC1=O)Nc1cc(Cl)ccc1Cl (stereo not drawn) | > 100 | > 100 | > 100 | 82.1 | > 100 | > 100 | – | > 100 | – | – | – | – | – | – | – | – | – | – | – | –
7 | O=C(CCn1[nH]c(=O)c(Cl)c(Cl)c1=O)NOCCCc1ccccc1 | > 100 | > 100 | > 100 | > 100 | > 100 | > 100 | – | > 100 | – | – | – | – | – | – | – | – | – | – | – | –
8 | COC(=O)CCC(=O)N1Cc2cc(C)ccc2N(C(=O)CCC(=O)OC)Cc2cc(C)ccc21 | > 100 | > 100 | > 100 | > 100 | > 100 | > 100 | > 100 | – | – | – | – | – | – | – | – | – | – | – | – | –
9 | Cn1c(=O)c2[nH]c(/N=N/N3CCN(CCO)CC3)nc2n(C)c1=O | > 100 | > 100 | > 100 | > 100 | > 100 | > 100 | > 100 | – | > 100 | – | – | > 100 | – | – | – | – | – | – | – | –
10 | O=C1C(Cl)=C(N/N=c2/[nH][nH]/c(=N/NC3=C(Cl)C(=O)c4ccccc4C3=O)c3ccccc23)C(=O)c2ccccc21 | 31.7 | 28.2 | 43.3 | 59.1 | 35.9 | 36.9 | 29.5 | – | 28.7 | 15.6 | 13.5 | 26.8 | 12.7 | 16.6 | 18.1 | 8.64 | 17.3 | 15.3 | – | 9.97
